Test results from US20090298797A1, “COMBINATION THERAPY FOR THE TREATMENT OF INFLUENZA” (priority 2008, published 2009).
Several values for one entry are separate records, joined by “and”; a condition that tells them apart may be missing. Equal values may be shown once.

How the values were obtained:
[1] = system: influenza A/H2N2 virus; details: mouse, in vivo; cited from earlier work
[2] = system: influenza A virus strain A/Vietnam/1194/04 (H5N1); set-up: species or system BALB/c mice; details: mouse, in vivo
[3] = system: influenza A virus strain A/Vietnam/1194/04 (H5N1); set-up: species or system BALB/c mice; details: mouse, in vivo; remark: listed apart in the source
[4] = system: IL-1, IL-6, IFN-γ, TNF-α, MIP-1, PGE2, leukotriene; assay: ELISA of pro-inflammatory cytokines, chemokines, PGE2 and leukotriene in tracheal-pulmonary lavage; format: in vivo, BALB/c mice

| SMILES | survival of mice infected by influenza A/H2N2 virus [1] | mean survival time [2] | survival [2] | survival rate [2] | TCID50 titer in the tracheal-pulmonary lavage [3] | levels of inflammatory markers IL-6, IFN-γ, TNF-α, MIP-1 and leukotriene in tracheal-pulmonary lavage ([4]; compared with triple therapy (P<0.01 or 0.05) or uninfected normal mice) | IL-1 levels in tracheal-pulmonary lavage ([4]; zanamivir alone and controls vs triple therapy, P>0.05) |
| --- | --- | --- | --- | --- | --- | --- | --- |
| Cc1ccc(C)c(OCCCC(C)(C)C(=O)O)c1 [gemfibrozil] | 52% | about 7.5 days | no significant improvement |  |  |  |  |
| CC(=O)N[C@H]1[C@H]([C@H](O)[C@H](O)CO)OC(C(=O)O)=C[C@@H]1N=C(N)N [zanamivir] |  | 10.7 ± 1.6 days and 8.4 days | All mice survived | 13.3% | below our detectable limit | significantly higher | only slightly lower |
| Cc1ccc(-c2cc(C(F)(F)F)nn2-c2ccc(S(N)(=O)=O)cc2)cc1 [celecoxib] |  | about 8.5 days |  |  |  |  |  |
| Nc1ccc(O)c(C(=O)O)c1 [mesalazine, 5-aminosalicylic acid] |  | about 8.5 days |  |  |  |  |  |
